Read-outs that look alike come from different tables or passages of the source.
Key:
[1] = tested on: E. coli DH5α producing individual β-lactamases; assay: Broth microdilution MIC in engineered strains (BLI fixed at 4 μg/ml); assay type: cell-based, Escherichia coli
Experimental: The spectrum of antibacterial activity of cefepime-taniborbactam and the breadth of inhibitory activity of this next-generation cyclic boronate BLI were assessed in 34 engineered E. coli strains each overproducing an individual β-lactamase and directly compared to those of the clinically approved agent ceftazidime-avibactam. In this manner, the antibacterial activity of the BL-BLI combinations relative to that of the partnered cephalosporins alone provided a quantitative measure of β-lactam potentiation that directly reflects the levels of inhibition of β-lactamase function achieved by addition of BLI. The BLI concentration was fixed at 4 μg/ml, as described in Materials and Methods.
The isogenic strains were used to establish a spectrum of inhibitory activity against 34 β-lactamases that were engineered into E. coli DH5α cells carrying chromosomal AmpC (ESC-1), a non-ESBL enzyme unable to hydrolyze these third- or fourth-generation cephalosporins. […]. The DNA fragments containing the promoter, the signal sequence, and each β-lactamase-coding gene were synthesized and cloned into pTwist Chlor High Copy in DH5α at Twist Bioscience. The individual expression plasmids along with their GenBank accession numbers are listed in Table S2 in the supplemental material and below. The protein sequences of β-lactamases were obtained from the Beta-Lactamase DataBase (www.bldb.eu) ([47]). Expression of the β-lactamases was confirmed by verifying decreased susceptibility to example test antibiotics that are known substrates of the enzymes. E. coli DH5α carrying pTU501, which expressed only the TEM-1 signal sequence from the bla promoter, was used as a control. The plasmid sequences are available through GenBank (Table S2).
The in vitro antibacterial activity of the β-lactams alone or in combination with the BLIs was determined in cation-adjusted Mueller-Hinton broth (CAMHB) microdilution assays according to CLSI recommendations ([51]). […]. The inocula for the broth microdilution assays were prepared by the broth culture method ([51]). […]

E. cloacae = assay: microbe, parasite or virus in culture; assay type: cell-based
Experimental: (§1) The antibacterial activity of the cephalosporins alone was included to ascertain the level of potentiation by the partnered BLI. BLIs were tested at a fixed concentration of 4 μg/ml in all combinations except cefepime-tazobactam, where tazobactam was fixed at a concentration of 8 μg/ml ([38]).
(§2) The in vitro antibacterial activity of the β-lactams alone or in combination with the BLIs was determined in cation-adjusted Mueller-Hinton broth (CAMHB) microdilution assays according to CLSI recommendations ([51]). […] The inocula for the broth microdilution assays were prepared by the broth culture method ([51]).

[2] = tested on: Enterobacterales clinical isolates; assay: MIC distributions in panels of clinical isolates (MIC50, MIC90, % susceptible); assay type: cell-based
Experimental: as §1, §2

[3] = tested on: P. aeruginosa clinical isolates; assay: microbe, parasite or virus in culture; assay type: cell-based, Pseudomonas aeruginosa
Experimental: as §1, §2

[4] = tested on: cefepime-nonsusceptible Enterobacterales isolates; set-up: method as in earlier work; conditions: taniborbactam fixed at 4 μg/ml in combination; cited from earlier work
[5] = Escherichia coli, ACT-17 (class C)
[6] = Escherichia coli, ACT-C189 (P99 AmpC) (class C)
[7] = Escherichia coli, CMY-2 (class C)
[8] = Escherichia coli, CTX-M-2 (class A)
[9] = Escherichia coli, CTX-M-15 (class A)
[10] = Escherichia coli, GES-5 (class A)
[11] = Escherichia coli, GIM-1 (class B)
[12] = Escherichia coli, IMP-1 (class B)
[13] = Escherichia coli, KPC-2 (class A)
[14] = Escherichia coli, KPC-3(A177E/D179Y) (class A)
[15] = Escherichia coli, KPC-3(D179Y) (class A)
[16] = Escherichia coli, KPC-3(D179Y/T243M) (class A)
[17] = Escherichia coli, KPC-3(T243A) (class A)
[18] = Escherichia coli, KPC-3(V240G) (class A)
[19] = Escherichia coli, KPC-3 (class A)
[20] = Escherichia coli, NDM-1 (class B)
[21] = Escherichia coli, NDM-5 (class B)
[22] = Escherichia coli, NDM-7 (class B)
[23] = Escherichia coli, OXA-48 (class D)
[24] = Escherichia coli, OXA-162 (class D)
[25] = Escherichia coli, OXA-163 (class D)
[26] = Escherichia coli, OXA-181 (class D)
[27] = Escherichia coli, OXA-232 (class D)
[28] = Escherichia coli, PER-1 (class A)
[29] = Escherichia coli, PER-2 (class A)
[30] = Escherichia coli, SHV-5 (class A)
[31] = Escherichia coli, SPM-1 (class B)
[32] = Escherichia coli, TEM-10 (class A)
[33] = Escherichia coli, TEM-24 (class A)
[34] = Escherichia coli, TEM-72 (class A)
[35] = Escherichia coli, VEB-9 (class A)
[36] = Escherichia coli, VIM-1 (class B)
[37] = Escherichia coli, VIM-2 (class B)
[38] = Escherichia coli, VIM-4 (class B)
[39] = Escherichia coli, Vector control
[40] = Enterobacter cloacae, strain 20, p99 AmpC/CTX-M-27/SHV-12/ACT-2/TEM-135, read-out: MIC
[41] = Enterobacter cloacae, strain 116723, p99 AmpC/TEM-1/CTX-M-3, read-out: MIC
[42] = Enterobacter cloacae, strain 138212, p99 AmpC/SHV-71/TEM-1, read-out: MIC
[43] = Enterobacter cloacae, strain 874381, CTX-M-15, read-out: MIC
[44] = Enterobacter cloacae, strain 875134, TEM-1/CTX-M-3/DHA-1, read-out: MIC
[45] = Enterobacter cloacae, strain 891849, TEM-1, read-out: MIC
[46] = Enterobacter cloacae, strain 920937, VIM-1, read-out: MIC
[47] = Enterobacter cloacae, strain 937223, SHV-12/CTX-M-9/ACT-7, read-out: MIC
[48] = Enterobacter cloacae, strain 938772, TEM-OSBL/CTX-M-15/ACT-30, read-out: MIC
[49] = Enterobacter cloacae, strain 976004, OXA-48, read-out: MIC
[50] = Enterobacter cloacae, strain 1249072, TEM-OSBL(b)/VIM-1, read-out: MIC
[51] = Enterobacter cloacae, strain 1365477, TEM-OSBL(b)/VIM-1, read-out: MIC
[52] = Wild-type, basal level Class C and OprD downregulation with RND efflux upregulation (n=14)

CC(C)(O/N=C(\C(=O)N[C@@H]1C(=O)N2C(C(=O)[O-])=C(C[n+]3ccccc3)CS[C@H]12)c1csc(N)n1)C(=O)O [CAZ]
MIC [1, 5]: 8 µg/mL
MIC [1, 6]: 256 µg/mL
MIC [1, 7]: 512 µg/mL
MIC [1, 8]: 32 µg/mL
MIC [1, 9]: 128 µg/mL
MIC [1, 10]: 64 µg/mL
MIC [1, 11]: > 128 µg/mL
MIC [1, 12]: 1020 µg/mL
MIC [1, 13]: 64 µg/mL
MIC [1, 14]: 1020 µg/mL
MIC [1, 15]: 1020 µg/mL
MIC [1, 16]: 1020 µg/mL
MIC [1, 17]: 256 µg/mL
MIC [1, 18]: 1020 µg/mL
MIC [1, 19]: 512 µg/mL
MIC [1, 20]: 1020 µg/mL
MIC [1, 21]: > 1020 µg/mL
MIC [1, 22]: > 1020 µg/mL
MIC [1, 23]: 1 µg/mL
MIC [1, 24]: 2 µg/mL
MIC [1, 25]: 256 µg/mL
MIC [1, 26]: 1 µg/mL
MIC [1, 27]: 1 µg/mL
MIC [1, 28]: 1020 µg/mL
MIC [1, 29]: 1020 µg/mL
MIC [1, 30]: 1020 µg/mL
MIC [1, 31]: 1020 µg/mL
MIC [1, 32]: 1020 µg/mL
MIC [1, 33]: 1020 µg/mL
MIC [1, 34]: 1020 µg/mL
MIC [1, 35]: 1020 µg/mL
MIC [1, 36]: 1020 µg/mL
MIC [1, 37]: 128 µg/mL
MIC [1, 38]: 256 µg/mL
MIC [1, 39]: 0.25 µg/mL
MIC ([1]; Vector control): 0.5 µg/mL
MIC (E. cloacae): 64 µg/mL
MIC (E. cloacae; [40]): ≥ 256 µg/mL
MIC (E. cloacae; [41]): 128 µg/mL
MIC (E. cloacae; [42]): 128 µg/mL
MIC (E. cloacae; [43]): ≥ 256 µg/mL
MIC (E. cloacae; [44]): 64 µg/mL
MIC (E. cloacae; [45]): 128 µg/mL
MIC (E. cloacae; [46]): ≥ 256 µg/mL
MIC (E. cloacae; [47]): ≥ 256 µg/mL
MIC (E. cloacae; [48]): 128 µg/mL
MIC (E. cloacae; [49]): 128 µg/mL
MIC (E. cloacae; [50]): ≥ 256 µg/mL
MIC (E. cloacae; [51]): ≥ 256 µg/mL
% Susceptible isolates ([2]; ESBL (n = 20)): 15%
% Susceptible isolates ([2]; KPC (n = 20)): 0%
% Susceptible isolates ([2]; MBL (n = 20)): 0%
% Susceptible isolates ([2]; Mixed Class A and C (n = 22)): 9.1%
% Susceptible isolates ([2]; OXA-48/48-like (n = 20)): 15%
% Susceptible isolates [3]: 0%
% Susceptible isolates ([3]; PDC variants (n = 10)): 0%
% Susceptible isolates [3, 52]: 35.7%

CO/N=C(\C(=O)N[C@@H]1C(=O)N2C(C(=O)[O-])=C(C[N+]3(C)CCCC3)CS[C@H]12)c1csc(N)n1 [FEP]
MIC [1, 5]: 4 µg/mL
MIC [1, 6]: 8 µg/mL
MIC [1, 7]: 2 µg/mL
MIC [1, 8]: 128 µg/mL
MIC [1, 9]: 128 µg/mL
MIC [1, 10]: 4 µg/mL
MIC [1, 11]: 4 µg/mL
MIC [1, 12]: 64 µg/mL
MIC [1, 13]: 64 µg/mL
MIC [1, 14]: 16 µg/mL
MIC [1, 15]: 32 µg/mL
MIC [1, 16]: 16 µg/mL
MIC [1, 17]: 64 µg/mL
MIC [1, 18]: 256 µg/mL
MIC [1, 19]: 128 µg/mL
MIC [1, 20]: 256 µg/mL
MIC [1, 21]: 512 µg/mL
MIC [1, 22]: 512 µg/mL
MIC [1, 23]: 2 µg/mL
MIC [1, 24]: 8 µg/mL
MIC [1, 25]: 128 µg/mL
MIC [1, 26]: 2 µg/mL
MIC [1, 27]: 2 µg/mL
MIC [1, 28]: 512 µg/mL
MIC [1, 29]: 256 µg/mL
MIC [1, 30]: 128 µg/mL
MIC [1, 31]: 128 µg/mL
MIC [1, 32]: 8 µg/mL
MIC [1, 33]: 2 µg/mL
MIC [1, 34]: 32 µg/mL
MIC [1, 35]: 128 µg/mL
MIC [1, 36]: 128 µg/mL
MIC [1, 37]: 16 µg/mL
MIC [1, 38]: 32 µg/mL
MIC [1, 39]: 0.12 µg/mL
MIC90 [4]: > 128 µg/mL

Cn1c(N)c(NC(=O)NCCN)c[n+]1CC1=C(C(=O)O)N2C(=O)[C@@H](NC(=O)/C(=N\OC(C)(C)C(=O)[O-])c3nsc(N)n3)[C@H]2SC1 [TOL]
MIC (E. cloacae; [40]): 32 µg/mL
MIC (E. cloacae; [41]): 32 µg/mL
MIC (E. cloacae; [42]): 32 µg/mL
MIC (E. cloacae; Enterobacter cloacae, strain 847426, KPC, read-out: MIC): ≥ 256 µg/mL
MIC (E. cloacae; [43]): ≥ 256 µg/mL
MIC (E. cloacae; [44]): 64 µg/mL
MIC (E. cloacae; [45]): 32 µg/mL
MIC (E. cloacae; [46]): ≥ 256 µg/mL
MIC (E. cloacae; [47]): 32 µg/mL
MIC (E. cloacae; [48]): 128 µg/mL
MIC (E. cloacae; [49]): ≥ 256 µg/mL
MIC (E. cloacae; [50]): ≥ 256 µg/mL
MIC (E. cloacae; [51]): ≥ 256 µg/mL
MIC (E. cloacae; Enterobacter cloacae, strain CDC-0053, KPC-3/TEM-1, read-out: MIC): 128 µg/mL
MIC (E. cloacae; Enterobacter cloacae, strain CDC-0163, KPC/CTX-M-1/ACT/MIR, read-out: MIC): 128 µg/mL
% Susceptible isolates ([2]; ESBL (n = 20)): 0%
% Susceptible isolates ([2]; KPC (n = 20)): 0%
% Susceptible isolates ([2]; MBL (n = 20)): 0%
% Susceptible isolates ([2]; Mixed Class A and C (n = 22)): 0%
% Susceptible isolates ([2]; OXA-48/48-like (n = 20)): 5%
% Susceptible isolates ([3]; GES/KPC/VIM carbapenemase producing (n = 17)): 0%
% Susceptible isolates ([3]; PDC variants (n = 10)): 0%
% Susceptible isolates [3, 52]: 85.7%

— PMC7038240 (Antimicrobial Agents and Chemotherapy, 2020)
